Measurements from patent US12528792B2, “Sulfonamide compounds and the use thereof in the treatment of cancer” (TROBIO THERAPEUTICS PTY LTD, priority 2019, dated 2026).
pIC50: −log10 of the molar value.

Key:
Type in all cases: cell-based
[1] = system: SK-N-SH neuroblastoma cells; assay: Cytotoxicity assay, MTS viability; details: Homo sapiens, 72 hours
Summary of the method: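 SK-N-SH cells, 2×10^3/well in DMEM with 10% FBS at 37 °C, treated with 1:2 compound series from 100 μM; MTS viability read after 72 hours. Viability normalised to vehicle control; EC50 taken from dose-response curves.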

[2] = system: MIA PaCa-2 (pancreatic) cells; assay: Anti-proliferative activity, Cell-Titre luminescent viability assay; details: Homo sapiens, 72 h exposure, Cell-Titre luminescent reagent
Summary of the method: (§1)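 Cells attached 24 h at 37° C., 5% CO2, then treated 72 h with compound at 0.3–100 μM or 0.1–30 μM. Viability read by Cell-Titre luminescence after 30 min reagent exposure, normalized to vehicle; EC50 from variable-slope sigmoidal nonlinear regression.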

[3] = system: Caco-2 (colorectal) cells; assay: as above; details: Homo sapiens, 72 h exposure, Cell-Titre luminescent reagent
Summary of the method: as §1

[4] = system: A549 (NSCLC) cells; assay: as above; details: Homo sapiens, 72 h exposure, Cell-Titre luminescent reagent
Summary of the method: as §1

[5] = system: PC3 (prostate) cells; assay: as above; details: 72 h exposure, Cell-Titre luminescent reagent
Summary of the method: as §1

[6] = system: A2780 (ovarian) cells; assay: as above; details: Homo sapiens, 72 h exposure, Cell-Titre luminescent reagent
Summary of the method: as §1

[7] = molecular target: T1, Tpm3.1-containing actin microfilaments in SK-N-SH neuroblastoma cells (Homo sapiens, UniProt P06753); assay: Imaging and quantitation of Tpm3.1 mCherry and 488-Atto-Phalloidin actin filaments; details: 24 hours post-treatment, two concentrations, FIG. 2 and FIG. 3
T1 construct: expressed in transfected cells; host or cells: SK-N-SH neuroblastoma cells
Description: The ability of compounds 24, 26 and 143 to disrupt Tpm3.1-containing actin microfilaments was investigated in SK—N—SH neuroblastoma cells that express Tpm3.1 labelled with the mCherry fluorophore. Cells were seeded at 3×10^4 cells per well in a volume of 1000 μL complete media onto a 12 well plate containing 13 mm coverslips and left to plate down for 24 hours prior to treatment. Cells were then treated with DMSO and two concentrations of the test compounds. 24 hours post-treatment, cells were fixed with 16% paraformaldehyde (PBS) and stained with 488-Atto-Phalloidin to visualise the actin filament bundles. Single plane images were obtained using the Olympus IX83 epi-fluorescence microscope. Ten fields of view were collected for both Tpm3.1 mCherry fluorophore (FIG. 2) and 488-Atto-Phalloidin (FIG. 3) with each treatment condition.
Quantitation of either Tpm3.1 mCherry filaments or 488-Atto-Phalloidin filaments was performed using ImageJ 1.52p software (ImageJ, NIH). The mean pixel intensity from a cell was measured by using a line across the entire cell cytoplasmic area above or below the nuclear region. The line was made to cross the filament bundles at a 90° angle for the measurement rather than run along a single filament. A total of n=100 cells were measured from ten fields of view. […]

[8] = system: A2780 ovarian cancer cells; assay: In vitro growth inhibition assay, Alamar Blue, single agent IC50; details: Homo sapiens, 72 h drug exposure, Alamar Blue, 384-well (26*: 96-well plate format), read-out: Single-agent IC50
Description: (§2) In vitro growth inhibition assays were performed as technical triplicate in two independent experiments and cell viability was assessed by Alamar Blue assay readout. Briefly, cells in logarithmic phase growth were seeded in 384-well plates in a 50 μL/well assay volume. Cells were seeded at 1,200 cells/well using a Multidrop 384 (Thermo Scientific) and allowed to adhere at 37° C. with 5% CO2, in a humidified atmosphere (LiCONIC incubator). After 24 hours incubation, test compounds, positive control (20 μM Thonzonium bromide, 100% kill) and vehicle only (0.4% DMSO) were added into wells of each assay plate using a Tecan HP D300 Digital Dispenser in technical triplicate under minimum light. Following 72 hours drug exposure, metabolic activity was detected by addition of 10% (v/v) Alamar Blue reagent to each assay well using a Multidrop Cambi (Thermo Scientific) and determined by measurement of fluorescence intensity (excitation 555 nm, emission 585 nm) using an EnSpire (Perkin Elmer) plate reader. Readings were performed at 0 hour (background) and after 6 hours alamar blue incubation at 37° C.
Each drug was tested as a 10-point concentration series with two-fold serial dilutions of each drug. The concentration series for compounds 6 and 8 was 100, 50, 25, 12.5, 6.25, 3.125, 1.563, 0.781, 0.391 and 0.195 μM and for compounds 24, 43 and 48 was 50, 25, 12.5, 6.25, 3.125, 1.563, 0.781, 0.391, 0.195 and 0.098 μM for the two independent experiments. The concentration series for vinorelbine and paclitaxel was 100, 50, 25, 12.5, 6.25, 3.125, 1.5625, 0.781, 0.391 and 0.195 nM. Thonzonium bromide (20 μM) and 0.4% DMSO were used as positive and vehicle controls, respectively. The IC50 value was calculated by derivation of the best-fit line using a sigmoidal dose response model (Activity Base Software Suite, IDES).
Activity Base software suite (IDES, version 8.3.0.175) was used for data analysis. Cell survival is expressed as a percentage of viable cells. IC50 concentrations were calculated by derivation of the best-fit line using a sigmoidal dose response model with technical triplicate data points.

[9] = system: A2780 ovarian cancer cells; assay: Drug combination screen, 6x6 dose matrix, Bliss-independence synergy; design: key to Max. Synergy, Vinorelbine: Bliss synergy score; 0 = no synergy, negative = antagonism; highest in matrix; key to Total Synergy, Vinorelbine: sum of Bliss synergy scores across the dose matrix; details: 72 h (26*: 96-well plate format); for Max. Synergy, Paclitaxel / Total Synergy, Paclitaxel: combination with paclitaxel; for Max. Synergy, Paclitaxel / Max. Synergy, Vinorelbine: Bliss score; for Total Synergy, Paclitaxel / Total Synergy, Vinorelbine: sum of Bliss scores of the matrix; for Max. Synergy, Vinorelbine / Total Synergy, Vinorelbine: combination with vinorelbine
Description: as §2
The two drugs in each combination matrix were dispensed using a Tecan HP D300 Digital Dispenser. Assays were performed in triplicate for each drug combination (test compound/vinorelbine and test compound/paclitaxel combinations). Synergistic drug interactions were calculated from the averaged cell viability data using the methodology described below.
Synergistic drug interactions were determined for each pa1rw1se drug combination by applying the Bliss-independence model that assumes independence of drug mechanisms. Prior to the analysis, percent cell viability (CV) for combination data were converted to fractional cell growth inhibition (GI) by the formula: […]
The Bliss additivism model was used to calculate a predicted combined response C to two single agents with responses A and B (using GI values), as follows:
The final score for any combination was reported as the difference between the value predicted by the additive model and the experimentally observed value, normalised to 100. Using GI values the maximum possible synergy score is 100, with 0 indicating no synergy and negative indicating possible antagonism. Scores were also reported as a “Max synergy” score, which is the highest individual synergy score for each combination matrix, and a “Total synergy” score, which was obtained by summation of each individual synergy score for the matrix.
The single agent IC50 values for the test compounds and their synergy scores in combination with vinorelbine and paclitaxel are presented in Table 4. The data is listed as IC50 mean from technical triplicates for two independent experiments. The averaged IC50 concentrations for the single agents from both runs were then used to generate the 6×6 dose matrices in the synergy experiment. Synergy scores for each drug combination were calculated by the Bliss-independence model. The maximum synergy and total synergy scores for each combination in A2780 cells are listed.

T1 sequence (P06753 1-248 isoform P06753-2): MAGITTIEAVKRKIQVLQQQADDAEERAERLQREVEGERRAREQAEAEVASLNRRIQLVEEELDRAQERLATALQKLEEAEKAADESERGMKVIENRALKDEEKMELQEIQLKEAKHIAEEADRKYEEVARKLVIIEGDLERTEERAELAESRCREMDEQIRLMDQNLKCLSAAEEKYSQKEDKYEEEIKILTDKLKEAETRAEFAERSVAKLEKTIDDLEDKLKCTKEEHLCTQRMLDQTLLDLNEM

pIC50 [2]	pIC50 [3]	pIC50 [4]	pIC50 [5]	pIC50 [6]	pIC50 [8]	Structure (SMILES)	pIC50 [1]	Disruption of Tpm3.1-containing actin microfilaments [7]	Max. Synergy, Paclitaxel [9]	Total Synergy, Paclitaxel [9]	Max. Synergy, Vinorelbine [9]	Total Synergy, Vinorelbine [9]
5.09	5.07	5.22	5.21	5.60	5.12	CCC(C)c1ccc(NC(=O)c2ccn(S(=O)(=O)c3ccc4[nH]ccc4c3)c2)cc1 (centres unmarked) [Compound 24, 1-((1H-indol-5-yl)sulfonyl)-N-(4-(sec-butyl)phenyl)-1H-pyrrole-3-carboxamide]	5.13	disrupt Tpm3.1-containing actin microfilaments in a dose-dependent manner	16.56	111.86	14.27	61.75
		4.74		5.72	4.89	Cc1ccc(NC(=O)c2ccn(S(=O)(=O)c3ccc4[nH]ccc4c3)c2)cc1 [Compound 43, 1-((1H-indol-5-yl)sulfonyl)-N-(p-tolyl)-1H-pyrrole-3-carboxamide]	4.76		12.46	3.06	10.94	73.13
